This passage reports inhibition results from patent publication US8580965B2, “Substituted sulfonamide compounds” (Gruenenthal GmbH, priority 2006, dated 2013).

Each structure is given as a SMILES string.

The assay concerns the target T1, human B1R receptor (bradykinin 1 receptor) (Homo sapiens, UniProt P46663).
T1 construct: host or cells: CHO K1 cells (hB1R cells)
T1 sequence (P46663 1-353): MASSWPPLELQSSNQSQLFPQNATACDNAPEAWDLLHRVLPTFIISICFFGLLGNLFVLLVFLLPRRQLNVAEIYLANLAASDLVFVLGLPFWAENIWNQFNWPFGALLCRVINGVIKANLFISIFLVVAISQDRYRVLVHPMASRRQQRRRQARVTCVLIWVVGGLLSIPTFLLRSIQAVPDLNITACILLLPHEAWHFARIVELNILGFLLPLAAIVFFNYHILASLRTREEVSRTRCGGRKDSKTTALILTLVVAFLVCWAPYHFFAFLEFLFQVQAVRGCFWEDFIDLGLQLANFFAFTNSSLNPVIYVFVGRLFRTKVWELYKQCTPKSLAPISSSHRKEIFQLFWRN
Description: FLIPR Ca2+ assay (Fluo-4) on CHO K1 cells stably transfected with the human B1R gene; % activation and % inhibition at 10 μM. The format is cell-based. As to conditions: CHO-K1, test substance 10 μM; CHO K1 hB1R cells; Ca2+ inflow after 0.5 nM Lys-Des-Arg9-bradykinin; read-out: B1R antagonism, human [10 μM] % inhibition. As for the experimental part: The agonistic or antagonistic action of substances can be quantified on the bradykinin receptor 1 (B1R) of the species human and rat with ectopically expressing cell lines (CHO K1 cells) and with the aid of a Ca^2+-sensitive dye (Fluo-4) using a fluorescent imaging plate reader (FLIPR). The indication in % activation is based on the Ca^2+ signal after addition of Lys-Des-Arg^9-bradykinin (0.5 nM) or Des-Arg^9-bradykinin (100 nM). Antagonists result in a suppression of the Ca^2+ influx following administration of the agonist. The % inhibition in comparison with the maximum achievable inhibition is indicated.
Functional Investigation on the Bradykinin 1 Receptor (B1R)
The agonistic or antagonistic action of substances can be determined on the bradykinin 1 receptor (B1R) of the human and rat species with the following assay. According to this assay, the Ca^2+ inflow through the channel is quantified with the aid of a Ca^2+-sensitive dyes (Fluo-4 type, Molecular Probes Europe BV, Leiden, The Netherlands) in a fluorescent imaging plate reader (FLIPR, Molecular Devices, Sunnyvale, USA).
Chinese Hamster Ovary cells (CHO K1 cells) which are stably transfected with the human B1R gene (hB1R cells, Euroscreen s.a., Gosselies, Belgium) or the B1R gene of the rat (rB1R cells, Axxam, Milan, Italy) are used. For functional investigations, these cells are plated-out on black 96-well plates with a clear base (BD Biosciences, Heidelberg, Germany) in a density of 20,000-25,000 cells/well. Overnight, the cells are incubated at 37° C. and 5% CO2 in culture medium (hB1R cells: Nutrient Mixture Ham's F12, Gibco Invitrogen GmbH, Karlsruhe, Germany; rB1R cells: D-MEM/F12, Gibco Invitrogen, Karlsruhe, Germany) with 10 vol. % FBS (foetal bovine serum, Gibco Invitrogen GmbH, Karlsruhe, Germany). On the following day, the cells are loaded with 2.13 μM Fluo-4 (Molecular Probes Europe BV, Leiden, The Netherlands) in HBSS buffer (Hank's buffered saline solution, Gibco Invitrogen GmbH, Karlsruhe, Germany) […] (Sigma-Aldrich, Taufkirchen, Germany) and 10 mM HEPES (Sigma-Aldrich, Taufkirchen, Germany) for 60 min at 37° C. The plates are subsequently washed 2× with HBSS buffer, and HBSS buffer which additionally contains 0.1% BSA (bovine serum albumin; Sigma-Aldrich, Taufkirchen, Germany), 5.6 mM glucose and 0.05% gelatine (Merck KGaA, Darmstadt, Germany) is added. After a further incubation of 20 minutes at room temperature, the plates are inserted into the FLIPR for Ca^2+ measurement. The Ca^2+-dependent fluorescence is measured here before and after addition of substances (λex=488 nm, λem=540 nm). The quantification is effected by measurement of the highest fluorescence intensity (FC, fluorescence counts) over time.
The FLIPR protocol comprises 2 additions of substance. Test substances (10 μM) are first pipetted on to the cells and the Ca^2+ inflow is compared with the control (hB1R: Lys-Des-Arg^9-bradykinin 0.5 nM; rB1R: Des-Arg^9-bradykinin 100 nM). The value in % activation based on the Ca^2+ signal after addition of Lys-Des-Arg^9-bradykinin (0.5 nM) or Des-Arg^9-bradykinin (100 nM) is obtained therefrom. After incubation for 10 minutes, 0.5 nM Lys-Des-Arg^9-bradykinin (hB1R) or 100 nM Des-Arg^9-bradykinin (rB1R) are applied and the inflow of Ca^2+ is likewise determined. Antagonists lead to a suppression of the Ca^2+ inflow. % inhibition compared with the maximum inhibition which can be achieved is calculated. The compounds show a good activity on the human and on the rat receptor. The following data were determined by way of example: […]
As usually defined, the inhibition is the change of the read-out against control, counted positive when it falls. Consider `O=C(COC1CCN(S(=O)(=O)c2ccccc2)CC1)N1CCC(O)(c2ccccn2)CC1` [Example 54, 2-(1-phenylsulfonyl-piperidin-4-yloxy)-1-(4′-hydroxy-3′,4′,5′,6′-tetrahydro-2′H-[2,4′]bipyridinyl-1′-yl)-ethanone], for which the inhibition at 10 µM is -13.1%.
On to `O=C(COC1CCN(S(=O)(=O)c2ccccc2)C1)N1CCC(O)(Cc2ccccc2)CC1` (centres unmarked) [Example 22, 2-(1-phenylsulfonyl-pyrrolidin-3-yloxy)-1-(4-benzyl-4-hydroxy-piperidin-1-yl)-ethanone], for which the inhibition at 10 µM worked out at 20.2%.
For `COc1cc(C)c(S(=O)(=O)N2CCN(CCOCC(=O)N3CCC(O)(c4cccnc4)CC3)CC2)c(C)c1C` [Example 47, 1-(4′-hydroxy-3′,4′,5′,6′-tetrahydro-2′H-[3,4′]bipyridinyl-1′-yl)-2-{2-[4-(4-methoxy-2,3,6-trimethyl-phenylsulfonyl)-piperazin-1-yl]-ethoxy}-ethanone], the inhibition at 10 µM was -3.95%.
For the molecule `COc1cc(C)c(S(=O)(=O)N2CCCC(OCC(=O)N3CCC(O)(c4ccccn4)CC3)C2)c(C)c1C` (centres unmarked) [Example 55, 1-(4′-hydroxy-3′,4′,5′,6′-tetrahydro-2′H-[2,4′]bipyridinyl-1′-yl)-2-[1-(4-methoxy-2,3,6-trimethyl-phenylsulfonyl)-piperidin-3-yloxy]-ethanone], the inhibition at 10 µM was -13.2%.
With `CN(CCCC(=O)N1CCC(O)(c2cccnc2)CC1)S(=O)(=O)c1ccc(Cl)cc1Cl` [Example 116, 2,4-dichloro-N-(4-(4-hydroxy-4-(pyridin-3-yl)piperidin-1-yl)-4-oxobutyl)-N-methylphenylsulfonamide], the inhibition at 10 µM was determined as 91.2%.
For `O=C(COC1CCCN(S(=O)(=O)c2ccccc2)C1)N1CCC(O)(Cc2ccccc2)CC1` (centres unmarked) [Example 27, 2-(1-phenylsulfonyl-piperidin-3-yloxy)-1-(4-benzyl-4-hydroxy-piperidin-1-yl)-ethanone], the inhibition at 10 µM turned out to be 9.32%.
`COc1cc(C)c(S(=O)(=O)N2CCCC(OCCC(=O)N3CCC(O)(c4ccc(Cl)cc4)CC3)C2)c(C)c1` (centres unmarked) [Example 184, 1-(4-(4-chlorophenyl)-4-hydroxypiperidin-1-yl)-3-(1-(4-methoxy-2,6-dimethylphenylsulfonyl)piperidin-3-yloxy)propan-1-one]: the inhibition at 10 µM is 56.1%.
`COc1cc(C)c(S(=O)(=O)N2CCC(OCCC(=O)N3CCC(O)(c4ccc(Cl)cc4)CC3)C2)c(C)c1` (centres unmarked) [Example 186, 1-(4-(4-chlorophenyl)-4-hydroxypiperidin-1-yl)-3-(1-(4-methoxy-2,6-dimethylphenylsulfonyl)pyrrolidin-3-yloxy)propan-1-one]: the inhibition at 10 µM amounted to 99.8%.
In the case of `COc1cc(C)c(S(=O)(=O)N2CCCC(OCCC(=O)N3CCC(O)(c4ccc(Br)cc4)CC3)C2)c(C)c1` (centres unmarked) [Example 185, 1-(4-(4-bromophenyl)-4-hydroxypiperidin-1-yl)-3-(1-(4-methoxy-2,6-dimethylphenylsulfonyl)piperidin-3-yloxy)propan-1-one] it was 54.6%; in that of `COc1cc(C)c(S(=O)(=O)N2CCC(OCCC(=O)N3CCC(O)(c4ccccc4)CC3)C2)c(C)c1` (centres unmarked) [Example 188, 1-(4-hydroxy-4-phenylpiperidin-1-yl)-3-(1-(4-methoxy-2,6-dimethylphenylsulfonyl)pyrrolidin-3-yloxy)propan-1-one], 52.7%; in that of `O=C(COC1CCN(S(=O)(=O)c2ccc(F)cc2)C1)N1CCC(O)(Cc2ccccc2)CC1` (centres unmarked) [Example 15, 1-(4-benzyl-4-hydroxy-piperidin-1-yl)-2-[1-(4-fluoro-phenylsulfonyl)-pyrrolidin-3-yloxy]-ethanone], 40.2%.
`COc1cc(C)c(S(=O)(=O)N2CCCC(OCC(=O)N3CCC(O)(Cc4ccccc4)CC3)C2)c(C)c1C` (centres unmarked) [Example 11, 1-(4-benzyl-4-hydroxy-piperidin-1-yl)-2-[1-(4-methoxy-2,3,6-trimethyl-phenylsulfonyl)-piperidin-3-yloxy]-ethanone]: the inhibition at 10 µM was 70.9%.
In the case of `O=C(COCC1CCCCN1S(=O)(=O)c1ccc(Cl)c(Cl)c1)N1CCC(O)(c2ccccn2)CC1` (centres unmarked) [Example 25, 2-[1-(3,4-dichloro-phenylsulfonyl)-piperidin-2-ylmethoxy]-1-(4′-hydroxy-3′,4′,5′,6′-tetrahydro-2′H-[2,4′]bipyridinyl-1′-yl)-ethanone] it was 10%.
With `COc1cc(C)c(S(=O)(=O)N2CCC(OCCC(=O)N3CCC(O)(c4cccc(C(F)(F)F)c4)CC3)C2)c(C)c1` (centres unmarked) [Example 190, 1-(4-hydroxy-4-(3-(trifluoromethyl)phenyl)piperidin-1-yl)-3-(1-(4-methoxy-2,6-dimethylphenylsulfonyl)pyrrolidin-3-yloxy)propan-1-one], the inhibition at 10 µM was determined as 103%.
In the case of `COc1cc(C)c(S(=O)(=O)N2CCN(CCOCC(=O)N3CCC(O)(c4ccccn4)CC3)CC2)c(C)c1C` [Example 48, 1-(4′-hydroxy-3′,4′,5′,6′-tetrahydro-2′H-[2,4′]bipyridinyl-1′-yl)-2-{2-[4-(4-methoxy-2,3,6-trimethyl-phenylsulfonyl)-piperazin-1-yl]-ethoxy}-ethanone] it was -4.32%; in that of `COc1ccc(S(=O)(=O)N2CCCCC2CCOCC(=O)N2CCC(O)(Cc3ccccc3)CC2)cc1` (centres unmarked) [Example 29, 1-(4-benzyl-4-hydroxy-piperidin-1-yl)-2-{2-[1-(4-methoxy-phenylsulfonyl)-piperidin-2-yl]-ethoxy}-ethanone], 7.66%; in that of `O=C(COC1CCN(S(=O)(=O)c2ccccc2)CC1)N1CCC(O)(c2cccnc2)CC1` [Example 46, 2-(1-phenylsulfonyl-piperidin-4-yloxy)-1-(4′-hydroxy-3′,4′,5′,6′-tetrahydro-2′H-[3,4′]bipyridinyl-1′-yl)-ethanone], -3.51%.
Consider `COc1cc(C)c(S(=O)(=O)N2CCCCC2COCCC(=O)N2CCC(O)(c3ccc(Cl)cc3)CC2)c(C)c1` (centres unmarked) [Example 181, 1-(4-(4-chlorophenyl)-4-hydroxypiperidin-1-yl)-3-((1-(4-methoxy-2,6-dimethylphenylsulfonyl)piperidin-2-yl)methoxy)propan-1-one], for which the inhibition at 10 µM was determined as 75.4%.
In the case of `COc1cc(C)c(S(=O)(=O)N(C)CCCC(=O)N2CCC(O)(c3cccnc3)CC2)c(C)c1` [Example 114, N-(4-(4-hydroxy-4-(pyridin-3-yl)piperidin-1-yl)-4-oxobutyl)-4-methoxy-N,2,6-trimethylphenylsulfonamide] it was 102%; in that of `COc1cc(C)c(S(=O)(=O)N2CCC(CCOCC(=O)N3CCC(O)(c4ccccn4)CC3)CC2)c(C)c1C` [Example 45, 1-(4′-hydroxy-3′,4′,5′,6′-tetrahydro-2′H-[2,4′]bipyridinyl-1′-yl)-2-{2-[1-(4-methoxy-2,3,6-trimethyl-phenylsulfonyl)-piperidin-4-yl]-ethoxy}-ethanone], -2.48%.
